Assay results: patent publication US11007248B2, “Suppression of allergic lung inflammation and hyperreactivity” (The Regents of the University of California, priority 2013, dated 2021)
Where no end group is shown, it is not given here. The star is where a group is joined. Myristoyl = CCCCCCCCCCCCCC(=O)*

How the values were obtained:
mucus secretion = details: previously reported, U.S. Patent Application Publication No. 2009/00220581; cited from earlier work
[1] = test system: OVA-allergic mouse airways; assay: Airway resistance by invasive body plethysmography, murine OVA-allergic model; assay type: in vivo; details: peptide i.p. before OVA i.n. challenge
Protocol: (§1) FIG. 2A: Murine OVA-allergic model.
Experiments were carried out as described in FIG. 2A. At day 19, animals were collected for airway resistance as measured by invasive body plethysmography. Data are expressed as the mean±SEM values (n=3). # p<0.05, PBS+OVA compared with the PBS control. *p<0.05, MPS +OVA compared with the PBS+OVA group.

[2] = test system: OVA-allergic mouse airways; assay: Lung section histology (H&E, PAS), murine OVA-allergic model; assay type: in vivo; details: for allergic inflammation associated with allergen/ovalbumin-induced allergic airway disease: mouse
Protocol: as §1
FIGS. 4A-4B show MPS suppressed mucous cell metaplasia (stained by periodic acid stain (PAS)) and inflammatory cells in OVA-allergic mouse airways. Experiments were carried out as described in FIG. 2A. At day 19, animals were sacrificed and lung tissues were fixed for paraffin sections. FIG. 4A: Lung sections were stained by H&E, and PAS staining. Original magnification ×200. FIG. 4B: Quantification of the numbers of H&E-stained cells and PAS-stained cells, and the score of the Masson trichrome staining are presented in bar graphs. Data are expressed as mean±SEM values (n=6).

phospho-STAT6 = assay: IL-13-induced signaling in primary NHBE cells, western blot: phospho-STAT6; assay type: cell-based, human; details: air-liquid interface, peptide 50 μM for 4 hrs, then IL-13 20 ng/ml for one hour
phospho-MARCKS = assay: IL-13-induced signaling in primary NHBE cells, western blot: phospho-MARCKS; assay type: cell-based, human; details: air-liquid interface, peptide 50 μM for 4 hrs, then IL-13 20 ng/ml for one hour
[3] = test system: antigen-presenting cells, dendritic cells (DCs); assay: Homing of antigen-presenting dendritic cells to mediastinal lymph nodes, flow cytometry, Ova-induced allergic mouse asthma; assay type: in vivo; details: allergic animal model; OVA-DQ challenge day 15-18; CD11c+ cells in mediastinal lymph nodes
Protocol: For detection of antigen specific DCs migration, mice were challenged with 150 μg OVA-DQ (Life Technologies, Grand Island, N.Y.) for one time per day at day 15-18. Cells were isolated from the mediastinal lymph nodes and lungs. Cells were stained with CD11c conjugated PEC-Cy7 (BD Bioscience, San Jose, Calif.) and analyzed by flow cytometry. Peptides used in this study were (wild type) MPS, A-MPS (mutant 2 in the figure) and D-MPS (mutant 1 in the FIG. 8).

p-Ser-159/163 MARCKS = details: MPS 154 μg/mouse/day i.p. day 10-14 prior to OVA i.n. exposure; IHC of lung tissue sections
[4] = test system: inflammatory cell types in OVA-allergic mouse airways
[5] = test system: BALF inflammatory cytokines (IL-4, IL-5, IL-13, eotaxin; IFN-γ); details: OVA-allergic mouse airways; MPS 154 μg/mouse/day i.p.; ELISA
OVA-specific IgE = details: OVA-allergic mouse; MPS 154 μg/mouse/day i.p.; ELISA
[6] = day 19, MPS+OVA vs PBS+OVA p<0.05
[7] = OVA-allergic mouse airways, MPS 154 μg/mouse/day i.p., day 19

Row | Substance | mucus secretion (mucus secretion) | airway hyper-reactivity (airway resistance) [1, 6] | allergic inflammation associated with allergen/ovalbumin-induced allergic airway disease [2] | suppression of IL-13-induced phospho-STAT6 elevation (phospho-STAT6) | suppression of IL-13-induced phospho-MARCKS elevation (phospho-MARCKS) | lymph node homing of antigen presenting cells [3] | airway hyper-reactivity (airway resistance) ([1]; day 19, MPS+OVA vs PBS+OVA p<0.05, listed as (wild-type) MPS) | inflammatory cells in lung tissue (H&E) [2, 7] | mucous cell metaplasia (PAS stain) [2, 7] | MARCKS phosphorylation in OVA sensitizing mice (p-Ser-159/163 MARCKS) | eosinophils (inflammatory response) ([4]; BALF differential cell counts) | presence of various inflammatory cell types in BALF ([4]; MPS 154 μg/mouse/day i.p., day 19) | Th1 cytokine (IFN-γ) in BALF [5] | Th2 cytokines (IL-4, IL-5, IL-13, eotaxin) in BALF [5] | serum OVA-specific IgE (OVA-specific IgE)
1 | myristic acid—KKKKKRFSFKKSFKLSGFSFKKNKK (Myristoyl-KKKKKRFSFKKSFKLSGFSFKKNKK) [myristic acid-wild type MPS disclosed in U.S. 2009/00220581] | increased | – | – | – | – | – | – | – | – | – | – | – | – | – | –
2 | KKKKKRFAFKKAFKLAGFAFKKNKK [A-MPS] | – | able to suppress | able to suppress | very effective in the suppression | very effective in the suppression | inhibited | – | – | – | – | – | – | – | – | –
3 | KKKKKRFDFKKDFKLDGFDFKKNKK [D-MPS] | – | not seen | not seen | not | not | no suppressive effects | – | – | – | – | – | – | – | – | –
4 | KKKKKRFSFKKSFKLSGFSFKKNKK [MPS] | – | suppressed | able to suppress | very effective in the suppression | very effective in the suppression | inhibited | able to suppress | suppressed | suppressed | effectively suppress | reduction | suppressed | not | suppressed specifically | suppressed
